Measurements taken from patent US8697127B2, “Method for preparing microspheres and microspheres produced thereby” (Ewha University-Industry Collaboration Foundation, priority 2008, dated 2014).
Each block holds one compound with its values, some of them ahead of it.

Assays:
[1] = Anastrazole encapsulation ratio of PLGA microparticles (HPLC); type: physicochemical; settings: PLGA 7E/0.15 g + 4A 0.1 g; 60 mg of anastrazole; Ethyl formate; 6 mL of 10 M NaOH
[2] = as above; type: physicochemical; settings: 60 mg of anastrazole
Protocol: Each of 7E, 4A and 2A polymers was dissolved in 4 mL of ethyl acetate. Then, 60 mg of anastrazole was dissolved to prepare a dispersed phase. The solution was added to 40 mL of 0.5% PVA aqueous solution and stirred. 5 mL of 10 M NaOH was added to the resultant o/w emulsion. After adding 40 mL of distilled water and stirring, microparticles were recovered by filtration. The microparticles were redispersed in 16 mL of 0.5% PVA aqueous solution. After adding distilled water to make 80 mL, the solution was stirred. After filtration, the microparticles were dried overnight in a vacuum dryer.
Similarly, microparticles encapsulating progesterone were prepared using ethyl formate instead of ethyl acetate and using 6 mL of 10 M NaOH.
Some of the microparticles prepared in Example <8-1> were accurately weighed and dissolved in 4 mL of tetrahydrofuran. After diluting 6 times with 50% acetonitrile, the solution was filtered using a 0.45 μm syringe filter to remove the PLGA precipitate. Some of the filtrate (20 μl) was subjected to HPLC (Shimadzu LC-20AD, Luna 5 m C18(2) column) for measurement of anastrazole concentration. Drug encapsulation ratio (%) was calculated using the equations given in Example <7-2>.

[3] = HPLC chromatogram analysis of anastrazole for decomposition or modification products; type: physicochemical; settings: ethyl acetate/PLGA (75:25)/NaOH; encapsulated in the microparticles and then recovered; HPLC chromatograms
Protocol: In order to indirectly estimate whether decomposition or modification products of anastrazole are produced during the preparation of microparticles using ethyl acetate/PLGA (75:25)/NaOH as in Example <8-1>, various samples were prepared (as in Example <8-1>) and their chromatograms were analyzed.

[4] = Aripiprazole encapsulation ratio of PLGA microparticles (HPLC); type: physicochemical; settings: PLGA 4A/0.25 g; 60 mg of aripiprazole; Ethyl formate; 5 mL of 8 M NaOH
Protocol: (§1) 0.25 g of 4A was dissolved in 4 mL of ethyl formate. Then, 60 mg of aripiprazole was dissolved to prepare a dispersed phase. The solution was added to 40 mL of 0.5% PVA aqueous solution and stirred. After adding 5 mL of 8 M NaOH to the resultant o/w emulsion, followed by reaction for 30 minutes, 40 mL of distilled water was further added and, after stirring, microparticles were recovered by filtration. The microparticles were redispersed in 16 mL of 0.5% PVA aqueous solution. After adding distilled water to make 80 mL, the solution was stirred. After filtration, the microparticles were dried overnight in a vacuum dryer.
(§2) Some of the microparticles including aripiprazole were accurately weighed and dissolved in 4 mL of tetrahydrofuran. After diluting 6 times with ethanol, the solution was filtered to remove the PLGA precipitate. Some of the filtrate (20 μl) was subjected to HPLC (Shimadzu LC-20AD) for measurement of aripiprazole concentration. Drug encapsulation ratio (%) was calculated using the equations given in Example <7-2>.

[5] = Encapsulation ratio of docetaxel, piroxicam, rivastigmine or tolterodine in PLGA microparticles (HPLC); type: physicochemical; settings: 0.25 g of 7E, 5 mL of 7 M NaOH
Protocol: Then, 0.25 g of 7E was dissolved to prepare a dispersed phase. The solution was added to 40 mL of 0.5% PVA aqueous solution and stirred. After adding 5 mL of 7 M NaOH to the resultant o/w emulsion, followed by reaction for 30 minutes, 40 mL of distilled water was further added and, after stirring, microparticles were recovered by filtration. The microparticles were redispersed in 16 mL of 0.5% PVA aqueous solution. After adding distilled water to make 80 mL, the solution was stirred. […] After diluting 6 times with ethanol, the solution was filtered to remove the PLGA precipitate.

[6] = background statement on organic solvents; cited from earlier work
[7] = Thermogravimetric analysis of microparticles; type: physicochemical; settings: up to 150° C.; isopropyl formate, 0.25 g of 7E and 250 mg of progesterone; 10° C./min, nitrogen
Protocol: The microparticles prepared in Example <7-3> (using isopropyl formate, 0.25 g of 7E and 250 mg of progesterone) and microparticles not including progesterone were analyzed using a thermogravimetric analyzer (TGA 2050). Nitrogen was used as a purge gas. Change in weight of the microparticles was automatically recorded while increasing temperature at a rate of 10° C./min.

[8] = Progesterone encapsulation ratio of PLGA microparticles (HPLC); type: physicochemical
Protocol: 0.25 g of 7E or 4A was dissolved in 4 mL of ethyl acetate. […] After stirring and filtration, microparticles were recovered. The microparticles were redispersed in 16 mL of 0.5% PVA solution and stirred, after adding distilled water to make 80 mL. […] Similarly, microparticles encapsulating progesterone were prepared using ethyl formate instead of ethyl acetate and using 6 mL of 10 M NaOH or 5 mL of 10 M HCl as a decomposition reagent. Some of the microparticles prepared in Example <7-1> were accurately weighed and dissolved in 4 mL of tetrahydrofuran. After diluting 6 times with methanol, the solution was filtered to remove the PLGA precipitate. Some of the filtrate (20 μl) was subjected to HPLC (Shimadzu LC-20AD, Luna 5 m C18(2) column) for measurement of progesterone concentration. Theoretical drug load (%) and actual drug load (%) were calculated from the following equations, and their ratio was defined as drug encapsulation ratio (%). Theoretical drug load (%)=(Weight of drug used (mg)/[Weight of PLGA used (mg)+Weight of drug used (mg)])×100 Actual drug load (%)=(Weight of drug encapsulated in microparticles (mg)/Weight of microparticles used for encapsulation ratio measurement (mg))×100 Drug encapsulation ratio (%)=(Actual drug load (%)/Theoretical drug load (%))×100 0.25 g of 7E was dissolved in 4 mL of isopropyl formate or propyl formate. […] After stirring and filtration, microparticles were recovered. The microparticles were redispersed in 16 mL of 0.5% PVA solution and stirred, after adding distilled water to make 80 mL. After filtration, the microparticles were in a vacuum dryer.

[9] = Risperidone encapsulation ratio of PLGA microparticles (HPLC); type: physicochemical; settings: PLGA 4A/0.25 g; 60 mg of risperidone; Ethyl formate; 5 mL of 8 M NaOH
Protocol: as §1, with “risperidone” for “aripiprazole”
as §2, with “risperidone” for “aripiprazole”

[10] = PLGA 2A/0.25 g, Ethyl acetate, 5 mL of 10 M NaOH
[11] = PLGA 4A/0.25 g, Ethyl acetate, 5 mL of 10 M NaOH
[12] = PLGA 7E/0.15 g + 4A 0.1 g, Ethyl formate, 6 mL of 10 M NaOH
[13] = PLGA 7E/0.15 g + 4A/0.1 g, Ethyl acetate, 5 mL of 10 M NaOH
[14] = 50 mg of docetaxel, Ethyl acetate
[15] = 50 mg of piroxicam, Ethyl formate
[16] = PLGA 4A/0.25 g, progesterone 60 mg, 10M NaOH 5 mL, ethyl acetate
[17] = PLGA 4A/0.25 g, progesterone 60 mg, 10M NaOH 6 mL, ethyl formate
[18] = PLGA 4A/0.25 g, progesterone 250 mg, 10M NaOH 5 mL, ethyl acetate
[19] = PLGA 4A/0.25 g, progesterone 250 mg, 10M NaOH 6 mL, ethyl formate
[20] = PLGA 7E/0.25 g, progesterone 60 mg, 10M HCl 5 mL, ethyl formate
[21] = PLGA 7E/0.25 g, progesterone 60 mg, 10M NaOH 5 mL, ethyl acetate
[22] = PLGA 7E/0.25 g, progesterone 60 mg, 10M NaOH 6 mL, ethyl formate
[23] = PLGA 7E/0.25 g, progesterone 100 mg, 10M HCl 5 mL, ethyl formate
[24] = PLGA 7E/0.25 g, progesterone 160 mg, 10M HCl 5 mL, ethyl formate
[25] = PLGA 7E/0.25 g, progesterone 200 mg, 10M HCl 5 mL, ethyl formate
[26] = PLGA 7E/0.25 g, progesterone 250 mg, 10M HCl 5 mL, ethyl formate
[27] = PLGA 7E/0.25 g, progesterone 250 mg, 10M NaOH 5 mL, ethyl acetate
[28] = PLGA 7E/0.25 g, progesterone 250 mg, 10M NaOH 6 mL, ethyl formate
[29] = 40 μl of rivastigmine, Ethyl acetate (table)
[30] = 40 mg of tolterodine, Ethyl formate

Encapsulation ratio (%) Batch 3 [1]: 65.5%
Encapsulation ratio (%) Batch 1 [2, 10]: 78.5%
Encapsulation ratio (%) Batch 2 [2, 10]: 75.2%
Encapsulation ratio (%) Batch 3 [2, 10]: 73.7%
Encapsulation ratio (%) Batch 1 [2, 11]: 78.1%
Encapsulation ratio (%) Batch 2 [2, 11]: 74.9%
Encapsulation ratio (%) Batch 3 [2, 11]: 77.6%
Encapsulation ratio (%) Batch 1 [2, 12]: 60.8%
Encapsulation ratio (%) Batch 2 [2, 12]: 65.1%
Encapsulation ratio (%) Batch 1 [2, 13]: 75.3%
Encapsulation ratio (%) Batch 2 [2, 13]: 73.8%
Encapsulation ratio (%) Batch 3 [2, 13]: 74.7%
Structure (SMILES): CC(C)(C#N)c1cc(Cn2cncn2)cc(C(C)(C)C#N)c1 [anastrazole]
decomposition or modification products of anastrazole during the preparation of microparticles [3]: no decomposition or modification products of anastrazole are produced

Average encapsulation ratio of 3 batches [4]: 72.3±2.0%
Encapsulation ratio (%) Batch 1 [4]: 72.2%
Encapsulation ratio (%) Batch 2 [4]: 74.3%
Encapsulation ratio (%) Batch 3 [4]: 70.3%
Structure (SMILES): O=C1CCc2ccc(OCCCCN3CCN(c4cccc(Cl)c4Cl)CC3)cc2N1 [aripiprazole]

Encapsulation ratio (%) Batch 1 [5, 14]: 83.2%
Encapsulation ratio (%) Batch 2 [5, 14]: 80.2%
Encapsulation ratio (%) Batch 3 [5, 14]: 84.2%
Structure (SMILES): CC(=O)O[C@@]12CO[C@@H]1C[C@H](O)[C@@]1(C)C(=O)[C@H](O)C3=C(C)[C@@H](OC(=O)[C@H](O)[C@@H](NC(=O)OC(C)(C)C)c4ccccc4)C[C@@](O)([C@@H](OC(=O)c4ccccc4)[C@H]21)C3(C)C [docetaxel]

Structure (SMILES): CCOC(C)=O [ethyl acetate]
water solubility [6]: 8.7 % by weight

Structure (SMILES): ClCCl [methylene chloride]
water solubility [6]: 1.32 % by weight

Encapsulation ratio (%) Batch 1 [5, 15]: 76.2%
Encapsulation ratio (%) Batch 2 [5, 15]: 81.2%
Encapsulation ratio (%) Batch 3 [5, 15]: 79.2%
Structure (SMILES): CN1C(C(=O)Nc2ccccn2)=C(O)c2ccccc2S1(=O)=O [piroxicam]

weight loss of the microparticles [7]: 0.75%
Encapsulation ratio (%) Batch 1 [8, 16]: 90.5%
Encapsulation ratio (%) Batch 2 [8, 16]: 92.8%
Encapsulation ratio (%) Batch 3 [8, 16]: 95.3%
Encapsulation ratio (%) Batch 1 [8, 17]: 92.0%
Encapsulation ratio (%) Batch 2 [8, 17]: 93.3%
Encapsulation ratio (%) Batch 3 [8, 17]: 95.6%
Encapsulation ratio (%) Batch 1 [8, 18]: 93.2%
Encapsulation ratio (%) Batch 2 [8, 18]: 92.2%
Encapsulation ratio (%) Batch 3 [8, 18]: 98.5%
Encapsulation ratio (%) Batch 1 [8, 19]: 96.2%
Encapsulation ratio (%) Batch 2 [8, 19]: 93.2%
Encapsulation ratio (%) Batch 3 [8, 19]: 100.7%
Encapsulation ratio (%) Batch 1 [8, 20]: 84.1%
Encapsulation ratio (%) Batch 2 [8, 20]: 88.7%
Encapsulation ratio (%) Batch 3 [8, 20]: 86.1%
Encapsulation ratio (%) Batch 1 [8, 21]: 93.8%
Encapsulation ratio (%) Batch 2 [8, 21]: 92.3%
Encapsulation ratio (%) Batch 3 [8, 21]: 96.0%
Encapsulation ratio (%) Batch 1 [8, 22]: 93.9%
Encapsulation ratio (%) Batch 2 [8, 22]: 94.0%
Encapsulation ratio (%) Batch 3 [8, 22]: 91.6%
Encapsulation ratio (%) Batch 1 [8, 23]: 89.0%
Encapsulation ratio (%) Batch 2 [8, 23]: 92.8%
Encapsulation ratio (%) Batch 3 [8, 23]: 91.5%
Encapsulation ratio (%) Batch 1 [8, 24]: 98.9%
Encapsulation ratio (%) Batch 2 [8, 24]: 102.0%
Encapsulation ratio (%) Batch 3 [8, 24]: 96.9%
Encapsulation ratio (%) Batch 1 [8, 25]: 99.2%
Encapsulation ratio (%) Batch 2 [8, 25]: 102.0%
Encapsulation ratio (%) Batch 3 [8, 25]: 95.5%
Encapsulation ratio (%) Batch 1 [8, 26]: 101.0%
Encapsulation ratio (%) Batch 2 [8, 26]: 101.0%
Encapsulation ratio (%) Batch 3 [8, 26]: 99.6%
Encapsulation ratio (%) Batch 1 [8, 27]: 92.8%
Encapsulation ratio (%) Batch 2 [8, 27]: 92.0%
Encapsulation ratio (%) Batch 3 [8, 27]: 97.7%
Encapsulation ratio (%) Batch 1 [8, 28]: 95.5%
Encapsulation ratio (%) Batch 2 [8, 28]: 98.5%
Encapsulation ratio (%) Batch 3 [8, 28]: 99.7%
Structure (SMILES): CC(=O)[C@H]1CC[C@H]2[C@@H]3CCC4=CC(=O)CC[C@]4(C)[C@H]3CC[C@]12C [progesterone]

Structure (SMILES): Cc1nc2n(c(=O)c1CCN1CCC(c3noc4cc(F)ccc34)CC1)CCCC2 [risperidone]
Average encapsulation ratio of 3 batches [9]: 75.0±1.4%
Encapsulation ratio (%) Batch 1 [9]: 75.2%
Encapsulation ratio (%) Batch 2 [9]: 73.6%
Encapsulation ratio (%) Batch 3 [9]: 76.3%

Structure (SMILES): CCN(C)C(=O)Oc1cccc([C@H](C)N(C)C)c1 [rivastigmine]
Encapsulation ratio (%) Batch 1 [5, 29]: 74.2%
Encapsulation ratio (%) Batch 2 [5, 29]: 79.2%
Encapsulation ratio (%) Batch 3 [5, 29]: 78.1%

Structure (SMILES): Cc1ccc(O)c([C@H](CCN(C(C)C)C(C)C)c2ccccc2)c1 [tolterodine]
Encapsulation ratio (%) Batch 1 [5, 30]: 70.3%
Encapsulation ratio (%) Batch 2 [5, 30]: 77.3%
Encapsulation ratio (%) Batch 3 [5, 30]: 73.2%
